Data as given in patent publication US6737383B1, “Herbicidal oxadiazolidines” (priority 1999, dated 2004).

Legend:
bedstraw = assay: Test B pre/postemergence bedstraw; type: in vivo, Galium aparine
Summary of the method: (§1)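 Herbicidal effect was estimated by eye on a ten-point control scale after plants spent twelve to sixteen days in a greenhouse following soil or foliar treatment. Foliar sprays targeted plants at one to four leaves; all doses were formulated in a non-phytotoxic solvent with surfactant.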

blackgrass = assay: Test B pre/postemergence blackgrass; type: in vivo, Alopecurus myosuroides
Summary of the method: as §1

surinam grass = assay: Test B pre/postemergence surinam grass; type: in vivo, Brachiaria decumbens
Summary of the method: as §1

cocklebur = assay: Test B pre/postemergence cocklebur; type: in vivo, Xanthium strumarium
Summary of the method: as §1

corn = assay: Test B pre/postemergence corn; type: in vivo, Zea mays
Summary of the method: as §1

crabgrass = assay: Test B pre/postemergence crabgrass; type: in vivo, Digitaria sanguinalis
Summary of the method: as §1

giant foxtail = assay: Test B pre/postemergence giant foxtail; type: in vivo, Setaria faberii
Summary of the method: as §1

morningglory = assay: Test B pre/postemergence morningglory; type: in vivo, Ipomoea hederacea
Summary of the method: as §1

pigweed = assay: Test B pre/postemergence pigweed; type: in vivo, Amaranthus retroflexus
Summary of the method: as §1

rape = assay: Test B pre/postemergence rape; type: in vivo, Brassica napus
Summary of the method: as §1

soybean = assay: Test B pre/postemergence soybean; type: in vivo, Glycine max
Summary of the method: as §1

sugar beet = assay: Test B pre/postemergence sugar beet; type: in vivo, Beta vulgaris
Summary of the method: as §1

velvetleaf = assay: Test B pre/postemergence velvetleaf; type: in vivo, Abutilon theophrasti
Summary of the method: as §1

wheat = assay: Test B pre/postemergence wheat; type: in vivo, Triticum aestivum
Summary of the method: as §1

wild oat = assay: Test B pre/postemergence wild oat; type: in vivo, Avena fatua
Summary of the method: as §1

purple nutsedge = assay: Test B pre/postemergence purple nutsedge; type: in vivo, Cyperus rotundus
Summary of the method: as §1

[1] = Postemergence, Rate 125 g/ha, scale 0 to 10, 0 is no effect, 10 is complete control
[2] = Preemergence, Rate 62 g/ha, scale 0 to 10 (0 no effect, 10 complete control)
[3] = Preemergence, Rate 125 g/ha, scale 0 to 10, 0 is no effect, 10 is complete control
[4] = Preemergence, Rate 500 g/ha, scale of 0 to 10 where 0 is no effect and 10 is complete control
[5] = Rate 250 g/ha, Postemergence, scale of 0 to 10 where 0 is no effect and 10 is complete control
[6] = Postemergence, Rate 62 g/ha, scale of 0 to 10, 0 is no effect, 10 is complete control
[7] = Postemergence, Rate 500 g/ha, scale 0 to 10, 0 is no effect, 10 is complete control

SMILES: CC(=O)OCCCCn1c(=O)on(C(=O)N(c2ccc(Cl)cc2)C(C)C)c1=O [Compound 536]
- Bedstraw plant response rating (bedstraw; [1]): 0
- Bedstraw plant response rating (bedstraw; [2]): 0
- Bedstraw plant response rating (bedstraw; [3]): 0
- Bedstraw plant response rating (0 to 10 scale) (bedstraw; Preemergence, Rate 250 g/ha): 0
- Bedstraw plant response rating (bedstraw; [4]): 0
- Plant response rating, Bedstraw (bedstraw; [5]): 0
- Blackgrass plant response rating (blackgrass; [6]): 0
- Blackgrass plant response rating (blackgrass; [1]): 0
- Plant response rating, Blackgrass (blackgrass; [7]): 0
- Blackgrass plant response rating (blackgrass; [2]): 0
- Blackgrass plant response rating (blackgrass; [3]): 0
- Blackgrass plant response rating (0 to 10 scale) (blackgrass; Preemergence, Rate 250 g/ha): 0
- Blackgrass plant response rating (blackgrass; [4]): 0
- Plant response rating, Blackgrass (blackgrass; [5]): 0
- B. signalgrass plant response rating (surinam grass; [6]): 0
- B. signalgrass plant response rating (surinam grass; [1]): 0
- Plant response rating, B. signalgrass (surinam grass; [7]): 0
- B. signalgrass plant response rating (surinam grass; [2]): 0
- B. signalgrass plant response rating (surinam grass; [3]): 0
- B. signalgrass plant response rating (0 to 10 scale, 0 is no effect, 10 is complete control) (surinam grass; Preemergence, Rate 250 g/ha): 0
- B. signalgrass plant response rating (surinam grass; [4]): 0
- Plant response rating, B. signalgrass (surinam grass; [5]): 0
- Cocklebur plant response rating (cocklebur; [6]): 0
- Cocklebur plant response rating (cocklebur; [1]): 0
- Plant response rating, Cocklebur (cocklebur; [7]): 0
- Cocklebur plant response rating (cocklebur; [2]): 0
- Cocklebur plant response rating (cocklebur; [3]): 0
- Cocklebur plant response rating (0 to 10 scale) (cocklebur; Preemergence, Rate 250 g/ha): 0
- Cocklebur plant response rating (cocklebur; [4]): 0
- Plant response rating, Cocklebur (cocklebur; [5]): 0
- Corn plant response rating (corn; [6]): 0
- Corn plant response rating (corn; [1]): 0
- Plant response rating, Corn (corn; [7]): 0
- Corn plant response rating (corn; [2]): 0
- Corn plant response rating (corn; [3]): 0
- Corn plant response rating (0 to 10 scale) (corn; Preemergence, Rate 250 g/ha): 0
- Corn plant response rating (corn; [4]): 0
- Plant response rating, Corn (corn; [5]): 0
- Crabgrass plant response rating (crabgrass; [6]): 0
- Crabgrass plant response rating (crabgrass; [1]): 5
- Plant response rating, Crabgrass (crabgrass; [7]): 3
- Crabgrass plant response rating (crabgrass; [2]): 0
- Crabgrass plant response rating (crabgrass; [3]): 0
- Crabgrass plant response rating (0 to 10 scale) (crabgrass; Preemergence, Rate 250 g/ha): 0
- Crabgrass plant response rating (crabgrass; [4]): 2
- Plant response rating, Crabgrass (crabgrass; [5]): 5
- Giant foxtail plant response rating (giant foxtail; [6]): 0
- Giant foxtail plant response rating (giant foxtail; [1]): 0
- Plant response rating, Giant foxtail (giant foxtail; [7]): 0
- Giant foxtail plant response rating (giant foxtail; [2]): 7
- Giant foxtail plant response rating (giant foxtail; [3]): 9
- Giant foxtail plant response rating (0 to 10 scale) (giant foxtail; Preemergence, Rate 250 g/ha): 10
- Giant foxtail plant response rating (giant foxtail; [4]): 10
- Plant response rating, Giant foxtail (giant foxtail; [5]): 0
- Morningglory plant response rating (morningglory; [6]): 2
- Morningglory plant response rating (morningglory; [1]): 2
- Plant response rating, Morningglory (morningglory; [7]): 2
- Morningglory plant response rating (morningglory; [2]): 0
- Morningglory plant response rating (morningglory; [3]): 0
- Plant response rating, Morningglory (morningglory; [5]): 2
- Redroot pigweed plant response rating (pigweed; [6]): 0
- Redroot pigweed plant response rating (pigweed; [1]): 0
- Plant response rating, Redroot pigweed (pigweed; [7]): 8
- Redroot pigweed plant response rating (pigweed; [2]): 0
- Redroot pigweed plant response rating (pigweed; [3]): 0
- Redroot pigweed plant response rating (0 to 10 scale) (pigweed; Preemergence, Rate 250 g/ha): 0
- Redroot pigweed plant response rating (pigweed; [4]): 0
- Plant response rating, Redroot pigweed (pigweed; [5]): 0
- Rape plant response rating (rape; [6]): 0
- Rape plant response rating (rape; [1]): 0
- Plant response rating, Rape (rape; [7]): 0
- Rape plant response rating (rape; [2]): 0
- Rape plant response rating (rape; [3]): 0
- Rape plant response rating (0 to 10 scale) (rape; Preemergence, Rate 250 g/ha): 0
- Rape plant response rating (rape; [4]): 0
- Plant response rating, Rape (rape; [5]): 0
- Soybean plant response rating (soybean; [6]): 2
- Soybean plant response rating (soybean; [1]): 4
- Plant response rating, Soybean (soybean; [7]): 6
- Soybean plant response rating (soybean; [2]): 0
- Soybean plant response rating (soybean; [3]): 0
- Soybean plant response rating (0 to 10 scale) (soybean; Preemergence, Rate 250 g/ha): 0
- Soybean plant response rating (soybean; [4]): 0
- Plant response rating, Soybean (soybean; [5]): 4
- Sugarbeets plant response rating (sugar beet; [6]): 0
- Sugarbeets plant response rating (sugar beet; [1]): 0
- Plant response rating, Sugarbeets (sugar beet; [7]): 0
- Sugarbeets plant response rating (sugar beet; [2]): 0
- Sugarbeets plant response rating (sugar beet; [3]): 0
- Sugarbeets plant response rating (0 to 10 scale) (sugar beet; Preemergence, Rate 250 g/ha): 2
- Sugarbeets plant response rating (sugar beet; [4]): 3
- Plant response rating, Sugarbeets (sugar beet; [5]): 0
- Velvetleaf plant response rating (velvetleaf; [6]): 0
- Velvetleaf plant response rating (velvetleaf; [1]): 0
- Plant response rating, Velvetleaf (velvetleaf; [7]): 0
- Velvetleaf plant response rating (velvetleaf; [2]): 0
- Velvetleaf plant response rating (velvetleaf; [3]): 0
- Velvetleaf plant response rating (0 to 10 scale) (velvetleaf; Preemergence, Rate 250 g/ha): 0
- Velvetleaf plant response rating (velvetleaf; [4]): 0
- Plant response rating, Velvetleaf (velvetleaf; [5]): 0
- Wheat plant response rating (wheat; [6]): 0
- Wheat plant response rating (wheat; [1]): 0
- Plant response rating, Wheat (wheat; [7]): 0
- Wheat plant response rating (wheat; [2]): 0
- Wheat plant response rating (wheat; [3]): 0
- Wheat plant response rating (0 to 10 scale) (wheat; Preemergence, Rate 250 g/ha): 0
- Wheat plant response rating (wheat; [4]): 0
- Plant response rating, Wheat (wheat; [5]): 0
- Wild oats plant response rating (wild oat; [6]): 0
- Wild oats plant response rating (wild oat; [1]): 0
- Plant response rating, Wild oats (wild oat; [7]): 0
- Wild oats plant response rating (wild oat; [2]): 0
- Wild oats plant response rating (wild oat; [3]): 0
- Wild oats plant response rating (0 to 10 scale) (wild oat; Preemergence, Rate 250 g/ha): 0
- Wild oats plant response rating (wild oat; [4]): 0
- Plant response rating, Wild oats (wild oat; [5]): 0
- Nutsedge plant response rating (purple nutsedge; [6]): 0
- Nutsedge plant response rating (purple nutsedge; [1]): 0
- Plant response rating, Nutsedge (purple nutsedge; [7]): 0
- Nutsedge plant response rating (purple nutsedge; [2]): 0
- Nutsedge plant response rating (purple nutsedge; [3]): 0
- Nutsedge plant response rating (0 to 10 scale) (purple nutsedge; Preemergence, Rate 250 g/ha): 0
- Nutsedge plant response rating (purple nutsedge; [4]): 0
- Plant response rating, Nutsedge (purple nutsedge; [5]): 0
